According to patent US7700122B1, “Topical compositions comprising an opioid analgesic and an NMDA antagonist” (Memorial Sloan-Kettering Cancer Center, priority 1998, dated 2010):
“Also recorded” adds a separate entry of the source. Structures can show the parent of a compound that is named as a salt.

How the values were obtained:
CD-1 mice [1] = assay: Tailflick assay, topical opioid analgesia (tail immersion in DMSO solution); type: in vivo; conditions: for analgesic response: morphine solution 7.5 mM; for analgesic response in proximal tail not exposed to the opioid solution: mouse, in vivo; for Relative potency: ratio of topical ED50 against morphine; for ED50 (95% CL): topical for 1 min, tailflick assay, CD-1 mice
CD-1 mice [2] = assay: Interactions between topical and systemic or spinal morphine (tailflick); type: in vivo; conditions: for ED50: Mus musculus, topical, 0.5 h
Procedure: Testing was performed 10 min following drug administration. […] Testing was performed 30 min following drug administration.
(§1) Systemic drugs were given subcutaneously (s.c.) in the midscapular region of the back. Intracerebroventricularly (i.c.v.) and intrathecal injections were performed under light halothane anesthesia 30 and 15 min before testing, respectively, as previously reported (Kolesnikov et al, 1996). The i.c.v. injections were administered-2 mm caudal and 2 mm lateral to the bregma at a depth of 3 mm, whereas intrathecal injections were made by lumbar puncture. Drugs were given topically on the tail by immersion of the tail in dimethylsulfoxide (DMSO) solutions containing the indicated drugs. The distal portion of the tail (3 cm) was immersed in DMSO solution for 1 min. Tailflick latencies then were determined on the region of the tail immersed in the drug, unless otherwise stated. To ensure a local effect, testing was also done with a more proximal segment of tail not exposed to the drug solution.
(§2) Analgesia was assessed with the tail-flick assay, as previously reported (Kolesnikov et al., 1996). The tail was exposed to a focused beam of light and the latency of exposure determined. […] A maximum cutoff latency of 10 sec was used to minimize tissue damage in analgesic animals. Testing was performed 30 min after systemic administration, 15 min after either i.c.v or i.t. injections or immediately after termination of topical administration into the tail. Antinociception, or analgesia, was defined quantally as a tailflick latency for an individual mouse which was at least twice its baseline latency. Group comparisons were performed using the Fisher exact test. ED50 values were determined using the Bliss program, as previously reported (Pick et al., 1993). To ensure a local action, in all studies we examined a region of the tail which was immersed in DMSO as well as a more proximal segment which was not exposed.

CD-1 mice [3] = assay: Tolerance to systemic and topical morphine and cross tolerance (tailflick); type: in vivo; conditions: for response to topical opioid after chronic systemic morphine (cross tolerance): morphine 5 mg/kg s.c. daily five days, tested day six, 1 min local exposure (morphine 15 mM, M6G 20 mM, DAMGO 2 mM)
Procedure: as §1, §2

CD-1 mice [4] = assay: Effects of opioid antagonists on topical mu analgesia (tailflick); type: in vivo; conditions: for effect of naloxone on topical opioid analgesic responses: naloxone 1 mg/kg s.c. 20 min prior, M6G 20 mM topical 1 min; for effect of 3-methoxynaltrexone on topical M6G response: 0.25 mg/kg s.c. 20 min prior, M6G 20 mM
Procedure: as §1, §2

[5] = for Radioactivity, Tail Unexposed: unexposed tail less than 1 cm from exposed region
CD-1 mice [6] = assay: Effect of NMDA antagonists (MK801, ketamine) on topical morphine tolerance (tailflick); type: in vivo
Procedure: as §1, §2

CD-1 mice [7] = conditions: subcutaneous injection in the tail, doses of 10 or 30 μg
[8] = central actions; cited from earlier work
[9] = tail immersed 3 min in 100 μCi/ml in DMSO, sampled within 5 min
[10] = morphine 15 mM daily, after three days

Compound: CN1CC[C@]23c4c5ccc(O)c4O[C@H]2[C@@H](O)C=C[C@H]3[C@H]1C5 [Morphine]
- analgesic response (CD-1 mice [1]; exposure 30 seconds): 25%
- analgesic response (CD-1 mice [1]; exposure 2 min): 80%
- analgesic response (CD-1 mice [1]; exposure one minute): 50%
- analgesic response in proximal tail not exposed to the opioid solution (CD-1 mice [1]): no analgesic response
- duration of the response (CD-1 mice [1]; topical, FIG. 1a): less than 30 min
- onset of analgesia after removal of the tail from the opioid solution (CD-1 mice [1]; topical, shortest time tested): detectable within one minute
- response to spinal morphine alone (CD-1 mice [2]; 100 ng, i.t.): no observable action
- response to systemic morphine alone (CD-1 mice [2]; 1 mg/kg, s.c.): 10%
- potentiation of analgesic potency of systemic morphine by topical morphine (CD-1 mice [2]; 30 min): ~7 fold
- ED50 (CD-1 mice [2]; read-out: ED50 value, Systemic + topical): 0.66 mg/kg
- ED50 (CD-1 mice [2]; read-out: ED50 value, Systemic alone): 4.3 mg/kg
- ED50 value, Spinal alone (CD-1 mice [2]; intrathecal morphine alone, tested 15 min): 550 ng (386-822)
- ED50 value, Spinal + topical (CD-1 mice [2]; intrathecal morphine with fixed topical morphine 15 mM, tested 15 min): 46 ng (21-84)
- enhancement of potency of intrathecal morphine by topical morphine (CD-1 mice [2]; mouse, in vivo): ~12 fold
- response of topical plus spinal morphine versus sum of routes (CD-1 mice [2]; topical 15 mM 2 min + 100 ng i.t., 10 min): significantly more active than the sum of the two individual routes alone
- response of topical plus systemic morphine versus sum of routes (CD-1 mice [2]; topical 15 mM + 1 mg/kg s.c., 30 min): significantly greater than the sum of the two ones alone
- response to topical morphine alone at 1 min (CD-1 mice [2]; topical morphine 15 mM, 2 min exposure, 1 min after): 80%
- response to topical morphine alone at 10 min (CD-1 mice [2]; topical morphine 15 mM, 10 min after): 30%
- response to topical morphine alone at 30 min (CD-1 mice [2]; topical morphine 15 mM, 30 min after): no observable response; also recorded: No analgesia
- day 3 response, systemic versus topical group (CD-1 mice [3]; 5 mg/kg s.c. or topical 15 mM 1 min daily): significantly greater than the topical group
- ED50 (CD-1 mice [3]; Mus musculus, topical, read-out: ED50 (95% confidence limits), Systemic, Naive): 4.3 mg/kg
- ED50 (95% confidence limits), Topical, Tolerant (CD-1 mice [3]; after topical morphine 15 mM daily for two days): 78 mM (49, 123)
- response to topical opioid after chronic systemic morphine (cross tolerance) (CD-1 mice [3]): significantly decreased
- ED50 (95% confidence limits), Topical, Naive (CD-1 mice [3]; naive mice, topical morphine): 8.3 mM (4.1-10.2)
- response to daily topical morphine alone after three days (CD-1 mice [3]; topical 15 mM, 1 min, daily): lost and profound tolerance by the third day and complete loss analgesia by the third day

Compound: C=CCN1CC[C@]23c4c5ccc(O)c4O[C@H]2C(=O)CC[C@@]3(O)[C@H]1C5 [naloxone]
- effect of naloxone on topical opioid analgesic responses (CD-1 mice [4]; morphine 15 mM, DAMGO 2 mM): easily reversed; also recorded: readily reversed
- effect of naloxone on topical opioid analgesic responses (CD-1 mice [4]; morphine 15 mM, DAMGO 2 mM, listed as Naloxone): significantly reduced the responses for all agonists

Compound: [^125I]Morphine [^125I-Morphine]
- Radioactivity, Blood [5, 9]: 69 ± 18 cpm/g
- Radioactivity, Spinal cord [5, 9]: 71 ± 12 cpm/g
- Radioactivity, Tail Exposed [5, 9]: 38,460 ± 3,455 cpm/g
- Radioactivity, Tail Unexposed [5]: 234 ± 51 cpm/g

Compound: C[C@@H](NC(=O)[C@@H](N)Cc1ccc(O)cc1)C(=O)NCC(=O)N(C)[C@@H](Cc1ccccc1)C(=O)NCCO [DAMGO, [D-Ala^2,MePhe^4,Gly(ol)^5]enkephalin]
- analgesic response in proximal tail not exposed to the opioid solution (CD-1 mice [1]): no analgesic response
- Relative potency (CD-1 mice [1]): 5
- ED50 (95% CL) (CD-1 mice [1]): 1.6 mM (1-2.5)
- duration of action (CD-1 mice [1]; topical, FIG. 1a): lasting almost an hour
- potency relative to morphine (CD-1 mice [1]; topical, fixed exposure time): over 5 fold
- response to topical opioid after chronic systemic morphine (cross tolerance) (CD-1 mice [3]): significantly decreased

Compound: C[C@]12N[C@H](Cc3ccccc31)c1ccccc12 [MK801, (5R,10S)— (+)-5-methyl-10,11-dihydro-5H-dibenzo[a,d]cyclohapten-5,10-immine hydrogen maleate]
- topical morphine response with intrathecal MK801 (CD-1 mice [6]; MK801 1 μg i.t., morphine 15 mM daily): lost and ineffective
- topical morphine response with systemic MK801 (tolerance prevention) (CD-1 mice [6]; MK801 0.1 mg/kg s.c., morphine 15 mM daily): remained essentially unchanged for five days
- reversal of established topical morphine tolerance by topical MK801 (CD-1 mice [6]; MK801 0.3 or 3 mM from fourth day): reversed the previously established tolerance
- topical morphine response with topical MK801 3 mM (tolerance prevention) (CD-1 mice [6]; morphine 15 mM 1 min daily): remained essentially unchanged for five days; also recorded: prevented the loss of responsiveness
- topical morphine response with topical MK801 0.15 mM (CD-1 mice [6]; [10]): intermediate response
- topical morphine response with topical MK801 0.3 mM (CD-1 mice [6]; [10]): prevented the loss of responsiveness; also recorded: effectively blocking tolerance

Compound: CN1CC[C@]23c4c5ccc(O)c4O[C@H]2[C@@H](O[C@@H]2O[C@H](C(=O)O)[C@@H](O)[C@H](O)[C@H]2O)C=C[C@H]3[C@H]1C5 [M6G, morphine-6β-glucuronide]
- analgesic response in proximal tail not exposed to the opioid solution (CD-1 mice [1]): did not display analgesia
- Relative potency (CD-1 mice [1]): 0.9
- ED50 (95% CL) (CD-1 mice [1]): 9.3 mM (7-14)
- topical analgesic response (CD-1 mice [1]; topical paradigm, tailflick): full analgesic response
- response to topical opioid after chronic systemic morphine (cross tolerance) (CD-1 mice [3]): no change
- ceiling effect of analgesia (CD-1 mice [7]): 30%
- central activity relative to morphine [8]: approximately 100 fold

Compound: [^125I]DAMGO [^125I-DAMGO]
- Radioactivity, Blood [5, 9]: <50 cpm/g
- Radioactivity, Brain [5, 9]: <50 cpm/g
- Radioactivity, Spinal cord [5, 9]: <50 cpm/g
- Radioactivity, Tail Exposed [5, 9]: 45,280 ± 2,637 cpm/g
- Radioactivity, Tail Unexposed [5]: 157 ± 51 cpm/g

Compound: COc1ccc2c3c1O[C@H]1C(=O)CC[C@@]4(O)[C@@H](C2)N(CC2CC2)CC[C@]314 [3-MeONtx, 3-methoxynaltrexone]
- effect of 3-methoxynaltrexone on topical M6G response (CD-1 mice [4]): significantly lowered the response only for M6G
- effect of 3-methoxynaltrexone on topical M6G response (CD-1 mice [4]; listed as 3MeONtx): significantly lowered the M6G response
- effect of 3-methoxynaltrexone on topical morphine or DAMGO analgesia (CD-1 mice [4]; 0.25 mg/kg s.c., morphine 15 mM, DAMGO 2 mM): inactive

Compound: CNC1(c2ccccc2Cl)CCCCC1=O (stereo not shown) [ketamine, 2-(2-chlorophenyl)-2-(methylamino) cyclohexanone]
- topical morphine tolerance with intrathecal ketamine (CD-1 mice [6]; data not shown): ineffective
- topical morphine tolerance with systemic ketamine (CD-1 mice [6]; data not shown): prevented the development of tolerance to topical morphine
- reversal of established topical morphine tolerance by topical ketamine 36 mM (CD-1 mice [6]; ketamine from day 3 through day 6): completely restored morphine analgesia
- topical morphine tolerance with topical ketamine 3.6 mM (CD-1 mice [6]; morphine 15 mM once daily): significantly lessened the loss of morphine analgesic response after three days; also recorded: delayed the appearance of tolerance
- topical morphine tolerance with topical ketamine 36 mM (CD-1 mice [6]; morphine 15 mM once daily): prevented tolerance up to six days; also recorded: effectively blocked tolerance
- analgesia of ketamine alone (CD-1 mice [6]; topical 36 mM): did not produce significant analgesia; also recorded: no appreciable effect
